Data published in patent publication US20240216458A1, “Composition for the prevention, improvement or treatment of allergic diseases comprising an extract of Cassia mimosoides L. as an active ingredient” (KOREA INSTITUTE OF SCIENCE AND TECHNOLOGY, priority 2022, published 2024).

Legend:
Assay type in all cases: cell-based, rat
Conditions in all cases: compound 20 μM
RBL-2H3 mast cells [1] = assay: Interleukin-4 production secreted by mast cells (ELISA)
Method: (§1) First, RBL-2H3 mast cells were seeded at 2×10^5 cells/well in a 24-well microtiter plate containing Dulbecco's Modified Eagle's Media (DMEM) medium containing 2.5% fetal bovine serum, and cultured until they grew to 80% confluence. Afterwards, ethanol extract of Cassia mimosoides L. prepared in <Example 1> was added to serum-free DMEM medium at a concentration of 20 μg/ml and 40 μg/ml, respectively, and mast cells were cultured for 24 hours. After treating mast cells with DNP-BSA for 30 minutes, the cell culture fluid was collected, centrifuged, and only the supernatant was harvested. The amount of interleukin-4 in the supernatant was confirmed using an ELISA kit (Invitrogen, USA).
Mast cells were cultured in the same manner as in Example 5, and then treated with 17 compounds isolated in Example 12 at a concentration of 20 μM, respectively.

RBL-2H3 mast cells [2] = assay: Prostaglandin E2 production secreted by mast cells (ELISA)
Method: as §1, with “prostaglandin E2” for “interleukin-4”, “(R&D systems,” for “(Invitrogen,”
Mast cells were cultured in the same manner as in Example 6, and then treated with 17 compounds isolated in Example 12 at a concentration of 20 μM, respectively.

RBL-2H3 mast cells [3] = assay: Histamine production secreted by mast cells (EIA kit)
Method: as §1, with “histamine” for “interleukin-4”, “EIA” for “ELISA”, “(Bertin Pharma, France).” for “(Invitrogen, USA).”
Mast cells were cultured in the same manner as in Example 3, and then treated with 17 compounds isolated in Example 12 at a concentration of 20 μM, respectively.

RBL-2H3 mast cells [4] = assay: TNF-α production secreted by mast cells (ELISA)
Method: as §1, with “TNF-α” for “interleukin-4”
Mast cells were cultured in the same manner as in Example 4, and then treated with 17 compounds isolated in Example 12 at a concentration of 20 μM, respectively.

RBL-2H3 mast cells [5] = assay: Secretion of allergens in mast cell granules (beta-hexosaminidase activity, degranulation) after DNP-BSA stimulation
Method: First, rat basophilic leukocyte (RBL-2H3, American Type Culture Collection, USA) mast cells were cultured in minimal medium containing antibiotics and 10% bovine serum. After culturing, the cells were collected with trypsin, placed in a 24-well microtiter plate at 2×10^5 cells/well, and cultured until they grew to 80% confluence. The medium was replaced with PIPES buffer (25 mM PIPES, PH 7.2, 159 mM NaCl, 5 mM KCl, 0.4 mM MgCl2, 1 mM CaCl2), 5.6 mM glucose, and 0.1% BSA) for the cultured cells, and then ethanol extract of Cassia mimosoides L. prepared in <Example 1> was added to concentrations of 20 μg/ml and 40 μg/ml, respectively, and cultured for 1 hour. […]
The degree of secretion of allergy-inducing substances was determined by measuring the activity of beta-hexosaminidase, a marker of degranulation secreted in the medium, and the activity of beta-hexosaminidase was determined as the amount of p-nitrophenol liberated from p-nitrophenyl-acetyl-β-D-glucosaminide (Funaba M. et al., Cell Biol. Int., 27:879-85, 2003). […]
The degree of allergen secretion was determined by measuring the activity of β-hexosaminidase, a marker of degranulation, which was secreted in the medium, and the activity of β-hexosaminidase was determined as the amount of p-nitrophenyl liberated from p-nitrophenyl-acetyl-β-D-glucosaminide (Funaba M. et al, Cell Biol. Int., 27:879-85, 2003). […]

Oc1ccc2c(c1)OC(c1ccc(O)c(O)c1)CC2c1c(O)cc(O)c2c1OC(c1ccc(O)c(O)c1)[C@@H](O)C2 (stereo partly drawn) [KA-2, (2S)-3′,4′,7-trihydroxyflavan-(4 α - >8)-catechin]
excellent efficacy: production of interleukin-4 secreted by mast cells (RBL-2H3 mast cells [1]) | production of prostaglandin E2 secreted by mast cells (RBL-2H3 mast cells [2]) | production of histamine secreted by mast cells (RBL-2H3 mast cells [3]) | production of TNF-α secreted by mast cells (RBL-2H3 mast cells [4]) | mast cell degranulation (RBL-2H3 mast cells [5])

Oc1ccc2c(c1)OC(c1ccc(O)c(O)c1)C[C@H]2c1c(O)cc(O)c2c1OC(c1ccc(O)c(O)c1)[C@@H](O)C2 (stereo partly drawn) [KA-1, (2S)-3′,4′,7-trihydroxyflavan-(4 β - >8)-catechin]
excellent efficacy: production of interleukin-4 secreted by mast cells (RBL-2H3 mast cells [1]) | production of prostaglandin E2 secreted by mast cells (RBL-2H3 mast cells [2]) | production of histamine secreted by mast cells (RBL-2H3 mast cells [3]) | production of TNF-α secreted by mast cells (RBL-2H3 mast cells [4]) | mast cell degranulation (RBL-2H3 mast cells [5])
